In patent US9975852B2, “Quinoline sulfonyl derivatives and uses thereof” (Health Sciences North Research Institute, priority 2013, dated 2018):

System: HeLa S3 cells
Assay: Western blot, immunostaining and immunoprecipitation of cell cycle proteins, HeLa S3 cells
Format: cell-based
From the text: All immunocytochemistry experiments were visualized by confocal microscopy using a Zeiss 510 Meta laser scanning microscope (Carl Zeiss) equipped with a 63× objective lens, unless otherwise specified herein. Three lasers were utilized for excitation with the following band pass filter settings used for detection: Argon 488 nm (band pass 505-530), HeNe 543 nm (long pass 560) and 633 nm (long pass 650). All images were captured and analyzed using LSM 510 software included with the microscope (LSM Image Examiner™, Carl Zeiss).
The synchronization at the G1/S border (more accurately at the beginning of S phase) was achieved by double thymidine block (DT). Briefly, exponentially growing cells are treated with 2.0 mM thymidine for 18 hours, followed by incubation for 11 hours in drug-free complete medium, by which time most cells are at mid-late G1 phase. The cells are then incubated for another 14 hours in 2.0 mM thymidine to arrest them at the G1/S border. To arrest cells at the G2/M phase, cells were maintained for 18 hours in complete medium containing nocodazole (50 ng/ml). Both these synchronization are reversible.
Under the experimental conditions, some of the cells were still stuck at G2/M until 8 hour post-drug treatment. “Asynchr” denotes asynchronous cells. 0 hour is the end of nocodazole treatment (i.e., 18 hours in 50 ng/ml nocodazole). At 0 hour, cells were released into complete medium in the absence (control) or presence of 5 μM VR-23 for 2, 4, or 8 hours as indicated. […] Extracts prepared from HeLa S3 cells treated with VR-23 in early-S phase (0 hour post double thymidine treatment), G2/M (arrested by nocodazole), or late G1 (6 hour post nocodazole) were subjected to Western blotting with anti-PARP1 antibody to detect proteins associated with apoptotic activities.
Evaluation of apoptosis in VR-23 treated and untreated control cells (FIG. 8). Treatment of cells in late G1 with VR-23 delayed their progression into S phase. HeLa S3 cells arrested in G2-M phase by nocodazole (50 ng/ml, 18 hours) were incubated in drug-free complete medium for 2, 4 or 6 hours (numbers in brackets), followed by incubation for 2 or 6 hours (+h) in the absence (control) (FIG. 8A) or presence (FIG. 8B) of 10 μM VR-23. […] By (6)+6 hours, most of the control cells already progressed into S phase, but VR-23-treated cells were still in G1 (long and short arrows, respectively). […] Under normal growth conditions, cyclin E expression peaks in late G1 and rapidly levels off as a cell enters S phase, at which time cyclin A expression rapidly increases. […] Thus cells treated with VR-23 were still in G1 phase because cyclin E was not degraded and cyclin A was not induced in a timely manner.
HeLa S3 cells arrested at G1/S by DT were released into cell cycle for 1-3 hours in the absence (control) (FIG. 16A) or presence (FIG. 16B) of VR-23. Cells were then fixed and immunostained with antibodies specific for γ-tubulin and cyclin E, or DNA stained. […] In contrast, cyclin E was localized to the centrosomes by 3 hour post-DT in cells exposed to VR-23 (see inset boxes of FIG. 16B). […] It is noted that proteasomes are localized to the centrosomes^12,13.
HeLa S3 cells synchronized at the G1/S border by DT were released into cell cycle at time 0 hour. Cells were then allowed to progress through S phase for 1 hour (FIG. 17A) or 3 hours (FIG. 17B) in the absence (control) or presence of VR-23. Plk1 was not localized to the centrosome at 1 hour post-DT either in VR-23 treated or untreated control cells. However, unlike in the control, all of the (amplified) centrosomes in cells exposed to VR-23 contained Plk1 by 3 hour post-DT. It was occasionally observed that one of the two centrosomes in untreated cells also contained plk1 at 3 hour post-DT (dotted arrow).
HeLa S3 cells synchronized at G1/S by DT were released into normal growth medium at 0 hour for 1-3 hours in absence (control) (FIG. 18A) or the presence (FIG. 18B) of VR-23. […]

[1] = 10 μM VR-23 after nocodazole release
[2] = released from DT for 1-3 hours with VR-23

With `O=[N+]([O-])c1ccc(S(=O)(=O)N2CCN(c3ccnc4cc(Cl)ccc34)CC2)c([N+](=O)[O-])c1` [Compound 1, 7-Chloro-4-(4-(2,4-dinitrophenylsulfonyl)piperazin-1-yl)quinoline] the “Levels of cyclins B and E” value (10 μM VR-23, 2 hour post-treatment) was “higher in the VR-23 treated cells than the control”, the “Levels of cyclin E and cyclin A (Western blot)” value (10 μM VR-23, (6)+6 hours) was “a high level of cyclin E and a lack of detectable cyclin A” and the “Cell cycle arrest (immunoprecipitation)” value [1] was “caused cell cycle arrest prior to mitotic checkpoint”. For the same compound, the “Cell cycle arrest point and Cdk1 status” value [1] was “arrested at prometaphase through the inactivation of Cdk1”, the “PARP1 cleavage (Western blot)” value (VR-23 in early-S, G2/M or late G1) was “showed PARP1 cleavage” and the “Centrosomal localization of Plk4” value [2] was “disrupted”. The “Cyclin E localization” value [2] was “localized to the centrosome by 3 hour post-DT” and the Plk1 localization (released from DT for 1 or 3 hours with VR-23) was “localized to the centrosome by 3 hour post-DT”.
